# Laboratory results from EP3045469A1, “POLYMYXIN DERIVATIVE AND USES THEREOF” (priority 2015, dated 2016).
# “And” between values parts separate entries of the source, which are not always exact repeats. Identical values can stand only once.
# What was measured:
# A. baumannii CMI 417 = assay: MIC assay (CLSI broth microdilution; checkerboard with rifampin); format: cell-based, Acinetobacter baumannii; conditions: in combination with rifampin (0.25 µg/mL), duplicate checkerboard assays; polymyxin-nonsusceptible strain
# Procedure: (§1) Synergy studies were performed by using polymyxin derivatives in combination with rifampin, a model compound for such antibacterial agents that the intact outer membrane of Gram-negative bacteria acts as a permeability barrier.
# [1] = 7-day intravenous toxicity (nephrotoxicity) study in cynomolgus monkeys; conditions: IV infusion TID; for animals euthanized due to severe nephrotoxic effects: seven days, 3 animals per group
# Procedure: In vivo toxicity and toxicokinetic studies were performed by using cynomolgus monkeys. The laboratory that performed the animal studies is accredited by the Association for Assessment and Accreditation of Laboratory Animal Care (AAALAC), has an Animal Welfare Assurance issued by the Office of Laboratory Animal Welfare (OLAW), is registered with the United States Department of Agriculture (USDA), and has an Institutional Animal Care and Use Committee (IACUC) responsible for compliance with applicable laws and regulations concerning the humane care and use of laboratory animals.
# Naive female cynomolgus monkeys were acclimatized to study room for 28 days during which each animal was implanted with a permanent indwelling femoral catheter to permit continuous intravenous infusions. The animals were allowed surgical recovery period of at least 2 weeks before initiating dosing.
# Polymyxin B sulfate was from Sigma-Aldrich (catalogue number P0972, lot number BCBF8382V). On each day of use, appropriate quantities of NAB739, NAB815 or polymyxin B were weighed and dissolved in appropriate volumes of sterile saline to prepare a stock solution for each test article and positive control. A correction factor was used in the stock solution preparation to account for both the purity and sulfate content in each test article. Accordingly, the dose (such as 36 mg/kg/d) refers to the dose of the pure peptide as its free base form, not as its sulfate salt.
# The doses were the following: polymyxin B 18 mg/kg/d (Group 1), polymyxin B 24 mg/kg/d (Group 2), NAB739 24 mg/kg/d (Group 3), NAB739 36 mg/kg/d (Group 4), NAB815 24 mg/kg/d (Group 5), NAB815 36 mg/kg/d (Group 6). Three animals were included in each study groups.
# (§2) For seven days, the animals were dosed by intravenous (IV) infusion three times daily (TID) at a dose volume of 10 mL/kg for 1 hour (± 10 minutes), 8 ± 0.5 hours apart. The day of initial dose administration was designated study Day 1, with subsequent days consecutively numbered. Days prior to the initial dose administration were consecutively numbered with the final day of acclimation referenced as Day -1.
# (§3) The following parameters were evaluated at designed intervals: clinical observations, body weights, clinical pathology (hematology, coagulation, serum chemistry, urinalysis including urine sediments and urine chemistry), toxi-cokinetics (plasma and urine) and anatomic pathology (kidney). In cases of animals sacrificed on an unscheduled basis, samples were taken on the day of the sacrifice.
# On the day of necropsy, animals were sedated with ketamine, weighed, and anesthetized with an intravenous injection of a commercial pentobarbital and phenytoin solution, followed by exsanguinations.
# At necropsy, gross observations and organ weights were recorded, and specific tissues were collected. Histopathology was conducted on sections of kidney stained with hematoxylin and eosin (H&E).
# The figures also show Urine N-acetyl-β-D-glucosaminidase/urine creatinine ratio (U-NAG/Crea; Fig. 3) and Urine Gamma Glutamyltransferase/urine creatinine ratio (U-GGT/Crea; Fig. 4), both urine biomarkers for kidney injury, in those animals. S-Crea and U-Crea were measured by using an Olympus Analyzer (OA) and the modified Jaffe method, S-BUN by using OA and urease/L-glutamate dehydrogenase. U-NAG was measured by using OA/enzymatic, and U-GGT by using OA and glutamyl-carboxy-p-nitroanilide IFCC.
# The presence of the following nephropathological parameters was recorded in each animal: tubular basophilia (regeneration), tubular degeneration/necrosis, infiltration (by mononuclear and/or mixed inflammatory cells), tubular dilatation, and tubular casts.
# K. pneumoniae JMI 27068 = assay: MIC assay (CLSI broth microdilution; checkerboard with rifampin); format: cell-based, Klebsiella pneumoniae; conditions: in combination with rifampin (0.25 µg/mL), duplicate checkerboard assays; polymyxin-nonsusceptible strain
# Procedure: as §1
# [2] = Toxicokinetics (plasma and urine levels by LC-MS/MS) in cynomolgus monkeys
# Procedure: as §2, §3
# Plasma and urine concentrations for toxicokinetic (TK) studies were determined by using liquid chromatograph interfaced with a mass spectrometer after precipitation of proteins. A sample (100 µL) was mixed with internal standard solution in water:formic acid (99:1 v/v; […]). Then, 600µL of 100:1 acetonitrile:formic acid was added. The plates were centrifuged at 3200 rpm for 5 minutes. Using a Tomtec Quadra96, a 450 µL aliquot was transferred to a new 96-well plate and dried under nitrogen at 40°C. Then, 200 µL of water:methanol:formic acid (85:15:1 1 v/v) was added and the plate sealed for LC-MS/MS injection. LC-MS system consisted of Waters Acquity liquid chromatograph interfaced with a Thermo Scientific TSQ Quantitative triple quadrupole MS with ionization in the positive ion mode. Each sample (20 µL) was injected onto a Waters Acquity BEH Shield RP18 column (2.1 x 50 mm; 1.7 µm) equilibrated at 50°C. Mobile Phase A was 85:15:1 v/v water:methanol:formic acid. Mobile Phase B was 50:50:1 v/v acetonitrile:methanol:formic acid.
# Peak area ratios from the calibration standard responses were regressed using a (1/concentration^2) linear fit for polymyxin B using colistin as the internal standard. For NAB739 and NAB815, peak areas from the calibration standard responses were regressed using a (1/concentration^2) quadratic fit (without the use of an internal standard).
# Toxicokinetic analysis was performed by using WinNonlin Phoenix version 6.3 software (Pharsight, Cary, NC). For plasma TK, noncompartmental IV infusion model was used.
# The data is from the cynomolgus monkey studies described in the Example 3, where the peptides were administered as a 1-hour intravenous infusion thrice a day. The plasma and urine levels of the peptides were determined as in Example 3.
# [3] = the six animals at 18 mg/kg/d and 24 mg/kg/d
substance,measurement,setting,value
Polymyxin B,MIC,A. baumannii CMI 417,1 µg/mL
same,animals euthanized due to severe nephrotoxic effects,[1]; 18 mg/kg/d,all the three animals
same,animals euthanized due to severe nephrotoxic effects,[1]; 24 mg/kg/d,Two animals
same,"S-BUN, S-Crea and U-GGT/Crea",[1]; [3],remarkably increased
same,U-NAG/Crea,[1]; [3],remarkably increased in five of the animals
same,MIC,K. pneumoniae JMI 27068,1 µg/mL
same,concentration in the urine,"[2]; after infusion at 8 mg/kg, highest found either in the 0-4 h or 4-8 h sample, given for each animal, 8 mg/kg",7000 ng/mL and 9000 ng/mL and 15000 ng/mL
same,0-8 h recovery in urine,"[2]; after the infusion of 8 mg/kg, percentages given for each animal, 8 mg/kg",1 % of the dose and 2 % of the dose (2×)
same,Area under the concentration-time from time 0 h to 8 h (AUCs 0-8h),"[2]; plasma, after the infusion of 8 mg/kg, day 1",112 (SD=5) hr*µg/mL
